Like-named read-outs stand apart in the source and are kept apart here.
Key:
C1b domain of human PKCδ = target: T1, C1b domain of human PKCδ (Homo sapiens, UniProt Q05655); assay: Competitive 3H-PDBu binding to C1b domain of PKCδ; settings: 3H-PDBu competition
T1 construct: Genes encoding C1b domains of human PKCα, δ, ε, θ, and PKD1 (PKCμ) were synthesized; made in house; host or cells: E. coli BL21(DE3)
Method in brief: (§1)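 Ki derived by Cheng-Prusoff from IC50, with each protein batch's measured ^3H-PDBu Kd. Displacement of ^3H-PDBu from E. coli-produced GST-fused C1b domains or full-length human PKC was run 10 min at 37°C plus 20 min on ice, with filter capture and scintillation counting.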

C1b domain of human PKCα = target: T2, C1b domain of human PKCα (Homo sapiens, UniProt P17252); assay: biochemical; type: binding; settings: 3H-PDBu competition
T2 construct: Genes encoding C1b domains of human PKCα, δ, ε, θ, and PKD1 (PKCμ) were synthesized; made in house; host or cells: E. coli BL21(DE3)
Method in brief: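 Competitive binding against 3H-PDBu tracer used recombinant GST-C1b fusion protein expressed in E. coli. Incubation ran 10 min at 37°C with shaking, then 20 min on ice, followed by filtration and scintillation counting of trapped 3H-PDBu. Affinity was derived using each protein preparation's experimentally determined Kd for 3H-PDBu.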

C1b domain of human PKCθ = target: T3, C1b domain of human PKCθ (Homo sapiens, UniProt Q04759); assay: Competitive 3H-PDBu binding to C1b domain of PKCθ; settings: C1b domain of human PKCθ, 3H-PDBu competition; read-out: Ki PKCθ
T3 construct: Genes encoding C1b domains of human PKCα, δ, ε, θ, and PKD1 (PKCμ) were synthesized; made in house; host or cells: E. coli BL21(DE3)
T3 sequence (Q04759 231-281 limits assumed): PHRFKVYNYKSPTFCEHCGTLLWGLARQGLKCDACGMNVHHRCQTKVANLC
Method: (§2) Compounds described in this disclosure were tested for binding affinity to C1b domain of PKC isoforms. Compound binding affinity to C1b domain of PKC isoforms was derived from competitive binding assay using radioactive tracer ^3H-PDBu and recombinant GST-C1b or full-length of human PKC proteins based on modified procedures from Methods in Molecular Biology, vol.
(§3) Genes encoding C1b domains of human PKCα, δ, ε, θ, and PKD1 (PKCμ) were synthesized and inserted into pGEX-2TK or pGEX-4T1 vectors for expression and production of GST-C1b proteins in E. coli BL21(DE3) via IPTG induction. The target proteins were purified by glutathione sepharose 4B and followed by ion exchange chromatography if needed to achieve purity >70%. Aliquots of the purified proteins were stored at −80 degree for binding assay (storage buffer: 20 mM Tris pH 8.0, 200 mM NaCl, 10% glycerol, 1 mM DTT).
(§4) The plate was incubated at 37° C. on a shaker at 300 rpm for 10 minutes and then put on ice for 20 minutes. […] The bottom of the filter plate was sealed and 50 μL of MicroScint-20 (PerkinElmer) cocktail was added to each well. ^3H-PDBu trapped in each well was counted using PerkinElmer MicroBeta2 Reader. Data were analyzed using GraphPad Prism5 with the model “log(inhibitor) vs. response-variable slope” to fit the IC50, and then IC50 was transformed to Ki using Cheng-Prusoff equation: Ki=IC50/(1+added radio ligand/Kd). Kd is the binding affinity of each protein preparation to ^3H-PDBu, determined experimentally.

C1b domain of human PKCε = target: T4, C1b domain of human PKCε (Homo sapiens, UniProt Q02156); assay: Competitive 3H-PDBu binding to C1b domain of PKCε; settings: C1b domain of human PKCε, 3H-PDBu competition; read-out: Ki PKCε
T4 construct: Genes encoding C1b domains of human PKCα, δ, ε, θ, and PKD1 (PKCμ) were synthesized; made in house; host or cells: E. coli BL21(DE3)
T4 sequence (Q02156 242-292 limits assumed): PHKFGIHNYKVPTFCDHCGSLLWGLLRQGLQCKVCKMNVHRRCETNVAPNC
Method: as §2, §3, §4

[1] = target: T5, C1b domain of human PKD1 (PKCμ) (Homo sapiens, UniProt Q15139); assay: biochemical; type: binding
T5 construct: Genes encoding C1b domains of human PKCα, δ, ε, θ, and PKD1 (PKCμ) were synthesized; made in house; host or cells: E. coli BL21(DE3)
T5 sequence (Q15139 270-320 limits assumed): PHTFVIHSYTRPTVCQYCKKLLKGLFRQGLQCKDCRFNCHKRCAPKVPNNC
Method in brief: as §1

[2] = tested on: phosphorylation of PKCμ, PKCδ and Erk1/2 in A549 lung cancer cells; type: cell-based; settings: 3 μM, 30 minutes, Western blot
Method: Cells were then treated with different drugs at indicated concentrations for 30 minutes. […] Imagequant LAS4000 (GE) was used to scan membranes if secondary antibodies anti-mouse IgG HRP conjugate or anti-rabbit IgG HRP conjugate (dilutions from 1:2000-1:10000) were used. For ProteinSimple Wes system, manufacture's procedure was followed (ProteinSimple 12-230 kDa Wes Separation Module) for sample preparation, loading, running, and data analysis.
Phosphorylation of these sites has been linked to acute activation or catalytic activity of the PKC isoforms and Erk1/2. High level of phosphorylation indicates strong activation.

[3] = tested on: A549 non-small cell lung cancer cell line; assay: Proliferation of A549 (CellTiter Glo); type: cell-based; settings: read-out: IC50 μM (A549 Cell Line)
Method in brief: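 Luminescent CellTiter Glo read-out after 96 h compound exposure of A549 cells plated at 1,000/well and rested 24 h at 37° C; DMSO kept ≤0.25%, dilutions 3-fold. Inhibition taken relative to DMSO-treated wells; IC50, relative IC50 and top inhibition derived by curve fitting.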

[4] = tested on: Panc2.13 (Pancreatic) cell line; assay: Proliferation of Panc2.13; type: cell-based; settings: Panc2.13
Method: (§5) The diterpenoid compounds were tested in A549, a non-small cell lung cancer cell line harboring a K-Ras activating mutation. Briefly, A549 cells at a density of 1,000 cells/well were seeded in 96-well plates and incubated at 37° C. for 24 hours. A series of different concentrations of compound stocks (500×) were prepared by 3-fold serial dilution in DMSO. These compounds were further diluted in culture media and then added to cells so that the final DMSO concentration was not exceeding 0.25%. After 96 hours of incubation, 50 μL of CellTiter Glo reagent (Promega) was added to each well and luminescence was measured after 10 minutes using EnVision (PerkinElmer). Luminescence from cells treated with DMSO alone was set as Max and % of inhibition was calculated as follows: Inhibition %=(Max−Sample value)/Max×100. Data was analyzed using XL-fit software (ID Business Solutions Ltd.) and IC50, relative IC50, and % of top inhibition was calculated. Some of the compounds in this disclosure were very potent in blocking proliferation of A549 lung cancer cells at low nM range. In addition, potency of inhibiting A549 proliferation correlated well with its binding affinity to PKCs for this series of compounds. In other words, higher affinity binders had stronger inhibitory effects on A549 proliferation. This further support the notion that activation, rather than inhibition, of certain PKC isoforms is required to block proliferation of cancer cells, some of which may harbor K-Ras mutations. This is in sharp contrast to previous literature and common belief that inhibition of PKC is necessary to block cancer cell growth (Kang, 2014, New Journal of Science, 2014:1-36). Data presented here is in agreement with recent findings that many loss-of-function but not gain-of-function mutations of PKC isoforms have been identified in many human cancers (Antal et al., 2015, Cell, 160:489-502).
(§6) The compounds in this disclosure were tested for their potency in blocking proliferation of a few other cancer cells lines, including K-Ras mutant pancreatic cell lines Panc2.13 and KP-4, leukemia cell line HL-60, and lymphoma cell lines Namalwa and Mino. Similar procedures as in Example 67 were followed. Initial cell numbers seeded in 96-well plates were different for different cell lines: 3000 cells/well for Panc2.13; 800-1000 cells/well for KP-4; 5000 cells/well for HL-60; 5000-10000 cells/well for Namalwa and Mino. A ratio ratio of (IC50 of K01)/(IC50 of compound) (data in parenthesis in Table 5) was used to normalize the compound potency from different assay batches to a common comparator […].

[5] = tested on: KP-4 (Pancreatic) cell line; assay: Proliferation of KP-4; type: cell-based; settings: KP-4; read-out: IC50 in μM KP-4 (Pancreatic)
Method: as §5, §6

[6] = tested on: HL-60 (Leukemia) cell line; assay: Proliferation of HL-60; type: cell-based; settings: HL-60
Method: as §5, §6

[7] = tested on: Namalwa (Lymphoma) cell line; assay: Proliferation of Namalwa; type: cell-based; settings: Namalwa
Method: as §5, §6

[8] = tested on: Mino (Lymphoma) cell line; assay: Proliferation of Mino; type: cell-based; settings: Mino
Method: as §5, §6

T1 sequence (Q05655 230-280 limits assumed): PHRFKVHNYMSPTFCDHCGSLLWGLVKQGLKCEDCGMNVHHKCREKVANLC

| SMILES | Ki (C1b domain of human PKCδ; read-out: Ki PKCδ) [nM] | Ki (C1b domain of human PKCα; read-out: Ki PKCα) [µM] | Ki (C1b domain of human PKCθ) [nM] | Ki (C1b domain of human PKCε) [nM] | Ki ([1]; C1b domain of human PKD1 (PKCμ), 3H-PDBu competition, read-out: Ki PKD1/PKCμ) [nM] | phosphorylation of PKC (PKD/PKCμ), PKCδ and Erk1/2 [2] | IC50 ([3]; A549, 96 hours incubation, CellTiter Glo) [µM] | IC50 ([4]; read-out: IC50 in μM Panc2.13 (Pancreatic)) [µM] | ratio of (IC50 of K01)/(IC50 of compound), Panc2.13 ([4]; value in parenthesis) | IC50 [5] [µM] | IC50 ([6]; read-out: IC50 in μM HL-60 (Leukemia)) [µM] | ratio of (IC50 of K01)/(IC50 of compound), HL-60 ([6]; value in parenthesis) | IC50 ([7]; read-out: IC50 in μM Namalwa (Lymphoma)) [µM] | ratio of (IC50 of K01)/(IC50 of compound), Namalwa ([7]; value in parenthesis) | IC50 ([8]; read-out: IC50 in μM Mino (Lymphoma)) [µM] | ratio of (IC50 of K01)/(IC50 of compound), Mino ([8]; value in parenthesis) | Ki (C1b domain of human PKCδ; Ki PKCδ) [nM] | Ki (C1b domain of human PKCα; Ki PKCα) [µM] | Ki [1] [nM] | IC50 ([3]; Homo sapiens, A549, 96 h) [µM] |
| --- | --- | --- | --- | --- | --- | --- | --- | --- | --- | --- | --- | --- | --- | --- | --- | --- | --- | --- | --- | --- |
| CC1=C[C@H]2[C@@]3(O)[C@H](C)C[C@]4(OC(=O)[C@@H](N)Cc5ccccc5)[C@H]([C@@H]3C=C(CO)C[C@]2(O)C1=O)C4(C)C [Compound K101-C1303] | 30 to 60 | 0.4 to 0.8 | 30 to 60 | 100 to 200 | 1 to 30 | induced phosphorylation | 0.6 to 1 | 1 to 2 | 0.75 | 0.6 to 1 | 0.2 to 0.6 | 0.9 | 0.2 to 0.6 | 0.19 | 0.1 to 0.2 | 0.57 | – | – | – | – |
| CC1=C[C@H]2[C@@]3(O)[C@H](C)C[C@]4(OC(=O)CCc5ccncc5)[C@H]([C@@H]3C=C(CO)C[C@]2(O)C1=O)C4(C)C [Compound K101-C1315] | – | – | – | – | – | induced phosphorylation | – | – | – | – | – | – | – | – | – | – | 100 to 200 | > 8 | 30 to 60 | 1 to 2 |
| CC1=C[C@H]2[C@@]3(O)[C@H](C)C[C@]4(OC(=O)CCc5ccccn5)[C@H]([C@@H]3C=C(CO)C[C@]2(O)C1=O)C4(C)C [Compound K101-C1316] | – | – | – | – | – | induced phosphorylation | – | – | – | – | – | – | – | – | – | – | 100 to 200 | 6 to 8 | 30 to 60 | 0.6 to 1 |
